Target: T1, CDK2 (Homo sapiens, UniProt P24941)
T1 construct: made in house; host or cells: Sf21 insect cells (stated for the CDK2/Cyclin E option; by analogy to CDK4/Cyclin D1 baculovirus co-infection)
Assay: CDK2 inhibition assay (in vitro kinase SPA, by analogy to the CDK4 assay)
Assay type: biochemical
Conditions: read-out: CDK2 inhibitory activity IC50
Experimental: The compounds were tested in an in vitro kinase assay in 96 well format using Scintillation Proximity Assay (SPA—obtained from Amersham) for measuring incorporation of [γ-33-P]-Adenosine Triphosphate into a test substrate (GST-Retinoblastoma). In each well was placed the compound to be tested (diluted in DMSO and water to correct concentrations) and in control wells either p16 as an inhibitor control or DMSO as a positive control.
Approximately 0.5 μl of CDK4/Cyclin D1 partially-purified enzyme (amount dependent on enzyme activity) diluted in 25 μl incubation buffer was added to each well then 20 μl of GST-Rb/ATP/ATP33 mixture (containing 0.5 μg GST-Rb and 0.2 μM ATP and 0.14 μCi [γ-33-P]-Adenosine Triphosphate), and the resulting mixture shaken gently, then incubated at room temperature for 60 minutes.
To each well was then added 150 μL stop solution containing (0.8 mg/well of Protein A-PVT SPA bead (Amersham)), 20 pM/well of Anti-Glutathione Transferase, Rabbit IgG (obtained from Molecular Probes), 61 mM EDTA and 50 mM HEPES pH 7.5 containing 0.05% sodium azide.
The plates were sealed with Topseal-S plate sealers, left for two hours then spun at 2500 rpm, 1124×g., for 5 minutes. The plates were read on a Topcount for 30 seconds per well. […]

IC50: 347 nM
Compound: N#Cc1ccccc1Nc1nc(Nc2ccc(S(N)(=O)=O)cc2)ncc1Cl [Example 23, 2-(4-Sulphamoylanilino)-4-(2-cyanoanilino)-5-chloropyrimidine]

From patent US7153964B2, “Pyrimidine compounds” (AstraZeneca AB, priority 2000, dated 2006)
